Data on four compounds can be found in ChEMBL document CHEMBL1667835, “Optimisation of 6-substituted isoquinolin-1-amine based ROCK-I inhibitors” (Bioorg Med Chem Lett, 2011).

The nature of data set [1]: Oral bioavailability in C57 mouse. In kind it is ADME, organism-based. As to conditions: in vivo.
The nature of data set [2]: Plasma clearance in C57 mouse. In kind it is ADME, organism-based.
The nature of data set [3]: Volume of distribution at steady state in C57 mouse. In kind it is ADME, organism-based. Conditions: in vivo, read-out: Vdss.
Data set [4] is described as follows: Half life in C57 mouse. The format is ADME, organism-based. As to conditions: in vivo.
Data set [5] can be described thus: Apparent permeability from apical to basolateral side of human Caco2 cells. In kind it is ADME, cell-based. As to conditions: Caco-2, read-out: permeability. (In general: Passage across Caco-2 layers is used to estimate intestinal permeability.)
Data set [6] in a line: Apparent permeability from basolateral to apical side of human Caco2 cells. The format is ADME, cell-based. As to conditions: Caco-2, read-out: permeability.
Data set [7] has as its system Hepatocyte. Description: Intrinsic clearance in rat hepatocytes assessed per 1 x 10^6 cells. The format is ADME, cell-based, Liver.
Data set [8] deals with Liver microsomes. Description: Intrinsic clearance in human liver microsomes assessed per mg of protein. In kind it is ADME, Microsome.
The test system of data set [9] is Liver microsomes. As to the kind of experiment: Intrinsic clearance in rat liver microsomes assessed per mg of protein. In kind it is ADME, Microsome. For orientation: Liver microsomes are vesicles of endoplasmic reticulum, rich in cytochrome P450 enzymes.
Data set [10] in a line: Intrinsic clearance in mouse liver microsomes assessed per mg of protein. The format is ADME, Microsome.
For data set [11], the system named is Hepatocyte. Description: Intrinsic clearance in human hepatocytes assessed per 1 x 10^6 cells. The format is ADME, cell-based, Liver.

The bioavailability is dose-corrected exposure relative to a reference, in per cent. A high value points to much systemic uptake. Regarding `Nc1nccc2cc(O[C@H]3CCCNC3)ccc12`, the bioavailability in [1] is over 75%.

By half-life is commonly meant the time needed for the level to fall by half in the phase considered. A low value points to fast loss. Turning to `Nc1nccc2c(S(=O)(=O)N3CCCNCC3)cccc12`, in data set [1], the bioavailability came to 57%. The clearance in [2] is 34 mL/min/kg. Also, the Vd in data set [3] came out at 2.4 L/kg. The compound also showed a half-life in data set [4] of 45 min.

For the compound `c1ccc(CN2CCC[C@H](Oc3ccc4cnccc4c3)C2)cc1`, the Papp A→B in [5] came out at 11.6 ×10⁻⁶ cm/s. The Papp B→A in data set [6] was found to be 17.6 ×10⁻⁶ cm/s. In addition, the clearance with Hepatocyte [7] is 21 µL/min/1e6 cells.

For `O=c1[nH]ccc2cc(O[C@H]3CCCNC3)ccc12`, in data set [5], the Papp A→B was determined as 14.3 ×10⁻⁶ cm/s. In data set [6], the Papp B→A came to 11.2 ×10⁻⁶ cm/s. In addition, the clearance with Liver microsomes [8] is under 12 µL/min/mg; in the data set on Liver microsomes [9] it was 24 µL/min/mg; in [10] it was 17 µL/min/mg; in the data set on Hepatocyte [7] it was under 6 µL/min/1e6 cells; in the data set on Hepatocyte [11] it was 2 µL/min/1e6 cells.
